Source: patent publication US20100298141A1, “SUBSTITUTED PYRIDINE N-OXIDE HERBICIDES” (E. I. DU PONT DE NEMOURS AND COMPANY, priority 2007, published 2010)

Tests used:
barnyardgrass [1] = assay: Test A pre-/postemergence greenhouse test; type: in vivo, Echinochloa crus-galli; settings: for Barnyardgrass plant response rating: 125 g ai/ha, 0 to 100 scale
Method in brief: (§1)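 Visual injury ratings, made relative to untreated controls roughly ten days after treatment, cover both preemergence and postemergence application. Compounds in a surfactant-containing non-phytotoxic solvent were sprayed onto the soil surface after sowing and, simultaneously, onto young plants at the one- to two-leaf stage.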

crabgrass = assay: Test A pre-/postemergence greenhouse test; type: in vivo, Digitaria sanguinalis; settings: for Crabgrass, Large plant response rating: 0 to 100 scale
Method in brief: as §1

giant foxtail = assay: Test A pre-/postemergence greenhouse test; type: in vivo, Setaria faberi; settings: for Foxtail, Giant plant response rating: 0 to 100 scale
Method in brief: as §1

velvetleaf [2] = assay: Test A pre-/postemergence greenhouse test; type: in vivo, Abutilon theophrasti; settings: for Velvetleaf plant response rating: Postemergence, 0 to 100 scale, 0 is no effect, 100 is complete control
Method in brief: as §1

blackgrass = assay: Test C pre-/postemergence test; type: in vivo, Alopecurus myosuroides
Method in brief: (§2)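 Test chemicals were formulated with surfactant in a non-phytotoxic solvent and sprayed both on freshly planted seeds (preemergence) and on 1- to 4-leaf plants of 2–18 cm (postemergence). Flooded-paddy pots received compound directly into 3 cm of standing water, maintained for the test.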

downy brome = assay: Test C pre-/postemergence test; type: in vivo, Bromus tectorum
Method in brief: as §2

green foxtail = assay: Test C pre-/postemergence test; type: in vivo, Setaria viridis
Method in brief: as §2

catchweed bedstraw = assay: Test C pre-/postemergence test; type: in vivo, Galium aparine
Method in brief: as §2

Surinam grass = assay: Test C pre-/postemergence test; type: in vivo, Brachiaria decumbens; settings: for Surinam Grass plant response rating: preemergence, scale 0 (no effect) to 100 (complete control)
Method in brief: as §2

woolly cupgrass = assay: Test C pre-/postemergence test; type: in vivo, Eriochloa villosa
Method in brief: as §2

lambsquarters = assay: Test C pre-/postemergence test; type: in vivo, Chenopodium album
Method in brief: as §2

pigweed = assay: Test C pre-/postemergence test; type: in vivo, Amaranthus retroflexus
Method in brief: as §2

common ragweed = assay: Test C pre-/postemergence test; type: in vivo, Ambrosia elation
Method in brief: as §2

soybean = assay: Test C pre-/postemergence test; type: in vivo, Glycine max
Method in brief: as §2

velvetleaf [3] = assay: Test C pre-/postemergence test; type: in vivo, Abutilon theophrasti; settings: for Velvetleaf plant response rating: preemergence, scale 0 (no effect) to 100 (complete control)
Method in brief: as §2

duck salad = assay: Test C flooded paddy test; type: in vivo, Heteranthera limosa; settings: Flood
Method in brief: (§3)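 Greenhouse pots flooded to 3 cm above soil at time of treatment received compound via the water, which stayed at that level.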

barnyardgrass [4] = assay: Test C flooded paddy test; type: in vivo, Echinochloa crus-galli; settings: Flood
Method in brief: as §3

[5] = Preemergence, 500 g ai/ha, 0 to 100 scale where 0 is no effect and 100 is complete control
[6] = Postemergence, 125 g ai/ha, 0 is no effect, 100 is complete control
[7] = Postemergence, 500 g ai/ha, 0 is no effect, 100 is complete control
[8] = Preemergence, 125 g ai/ha, 0 no effect, 100 complete control
[9] = 31 g ai/ha, Preemergence, scale 0 to 100
[10] = 62 g ai/ha, preemergence, scale 0 (no effect) to 100 (complete control)
[11] = preemergence, 125 g ai/ha, scale 0 (no effect) to 100 (complete control)
[12] = 31 g ai/ha, scale 0 to 100 (0 no effect, 100 complete control)
[13] = 62 g ai/ha, scale 0 to 100, 0 no effect, 100 complete control, 13 to 15 days
[14] = 125 g ai/ha, scale 0 to 100, 0 no effect, 100 complete control, 13 to 15 days
[15] = 250 g ai/ha, scale 0 to 100 (0 no effect, 100 complete control)

With `Cn1nc(C(F)(F)F)c(CS(=O)(=O)c2ccc(Cl)c[n+]2[O-])c1OC(F)F` [Compound 7] as the compound, how does the “Barnyardgrass plant response rating” value (barnyardgrass [1]; Postemergence, 0 is no effect, 100 is complete control) read?
Its value is 10.

What about the “Barnyardgrass plant response rating” value (barnyardgrass [1]; Preemergence, 0 no effect, 100 complete control) of the same compound?
The value was 90.

What about the “Plant response rating, Barnyardgrass” value (barnyardgrass [1]; [5]) of the same compound?
The value was 90.

What about the “Crabgrass, Large plant response rating” value (crabgrass; [6]) of the same compound?
The value was 70.

What about the “Crabgrass, Large plant response rating” value (crabgrass; [7]) of the same compound?
The value was 80.

And the “Crabgrass, Large plant response rating” value (crabgrass; [8])?
The value was 90.

And the “Plant response rating, Crabgrass, Large” value (crabgrass; [5])?
The value was 90.

What about the “Foxtail, Giant plant response rating” value (giant foxtail; [6]) of the same compound?
The value was 30.

What about the “Foxtail, Giant plant response rating” value (giant foxtail; [7]) of the same compound?
Its value is 70.

What about the “Foxtail, Giant plant response rating” value (giant foxtail; [8]) of the same compound?
Its value is 90.

And the “Plant response rating, Foxtail, Giant” value (giant foxtail; [5])?
Its value is 90.

And the “Velvetleaf plant response rating” value (velvetleaf [2]; 125 g ai/ha)?
The value was 0.

And the “Velvetleaf plant response rating” value (velvetleaf [2]; 500 g ai/ha)?
The value was 20.

And the “Plant response rating, Velvetleaf” value (velvetleaf [2]; [5])?
The value was 30.

What about the “Blackgrass plant response rating” value (blackgrass; [9]) of the same compound?
Its value is 70.

What about the “Blackgrass plant response rating” value (blackgrass; [10]) of the same compound?
Its value is 70.

And the “Plant response rating (0 to 100), Blackgrass” value (blackgrass; Preemergence, 250 g ai/ha)?
The value was 100.

And the “Blackgrass plant response rating” value (blackgrass; [11])?
Its value is 85.

What about the “Bromegrass, Downy plant response rating” value (downy brome; [9]) of the same compound?
Its value is 0.

What about the “Bromegrass, Downy plant response rating” value (downy brome; [10]) of the same compound?
The value was 0.

And the “Plant response rating (0 to 100), Bromegrass, Downy” value (downy brome; Preemergence, 250 g ai/ha)?
The value was 0.

What about the “Bromegrass, Downy plant response rating” value (downy brome; [11]) of the same compound?
The value was 0.

And the “Foxtail, Green plant response rating” value (green foxtail; [9])?
The value was 40.

What about the “Foxtail, Green plant response rating” value (green foxtail; [10]) of the same compound?
The value was 60.

And the “Plant response rating (0 to 100), Foxtail, Green” value (green foxtail; Preemergence, 250 g ai/ha)?
The value was 100.

And the “Foxtail, Green plant response rating” value (green foxtail; [11])?
The value was 80.

What about the “Galium plant response rating” value (catchweed bedstraw; [9]) of the same compound?
Its value is 40.

And the “Galium plant response rating” value (catchweed bedstraw; [10])?
Its value is 85.

What about the “Plant response rating (0 to 100), Galium” value (catchweed bedstraw; Preemergence, 250 g ai/ha) of the same compound?
The value was 95.

What about the “Galium plant response rating” value (catchweed bedstraw; [11]) of the same compound?
Its value is 90.

And the “Surinam Grass plant response rating” value (Surinam grass; 62 g ai/ha)?
Its value is 20.

What about the “Plant response rating (0 to 100), Surinam Grass” value (Surinam grass; Preemergence, 250 g ai/ha) of the same compound?
The value was 70.

And the “Surinam Grass plant response rating” value (Surinam grass; 125 g ai/ha)?
The value was 30.

What about the “Cupgrass, Woolly plant response rating” value (woolly cupgrass; [9]) of the same compound?
Its value is 50.

What about the “Cupgrass, Woolly plant response rating” value (woolly cupgrass; [10]) of the same compound?
Its value is 70.

And the “Plant response rating (0 to 100), Cupgrass, Woolly” value (woolly cupgrass; Preemergence, 250 g ai/ha)?
The value was 100.

What about the “Cupgrass, Woolly plant response rating” value (woolly cupgrass; [11]) of the same compound?
Its value is 98.

What about the “Lambsquarters plant response rating” value (lambsquarters; [9]) of the same compound?
Its value is 0.

And the “Lambsquarters plant response rating” value (lambsquarters; [10])?
The value was 0.

And the “Plant response rating (0 to 100), Lambsquarters” value (lambsquarters; Preemergence, 250 g ai/ha)?
Its value is 100.

And the “Lambsquarters plant response rating” value (lambsquarters; [11])?
The value was 80.

And the “Pigweed plant response rating” value (pigweed; [9])?
The value was 100.

What about the “Pigweed plant response rating” value (pigweed; [10]) of the same compound?
Its value is 100.

What about the “Plant response rating (0 to 100), Pigweed” value (pigweed; Preemergence, 250 g ai/ha) of the same compound?
Its value is 100.

What about the “Pigweed plant response rating” value (pigweed; [11]) of the same compound?
Its value is 100.

And the “Ragweed plant response rating” value (common ragweed; [9])?
The value was 0.

And the “Ragweed plant response rating” value (common ragweed; [10])?
Its value is 80.

What about the “Plant response rating (0 to 100), Ragweed” value (common ragweed; Preemergence, 250 g ai/ha) of the same compound?
The value was 100.

What about the “Ragweed plant response rating” value (common ragweed; [11]) of the same compound?
The value was 100.

And the “Soybean plant response rating” value (soybean; [9])?
Its value is 0.

And the “Soybean plant response rating” value (soybean; [10])?
The value was 0.

What about the “Plant response rating (0 to 100), Soybean” value (soybean; Preemergence, 250 g ai/ha) of the same compound?
The value was 30.

What about the “Soybean plant response rating” value (soybean; [11]) of the same compound?
The value was 0.

And the “Velvetleaf plant response rating” value (velvetleaf [3]; 62 g ai/ha)?
Its value is 0.

And the “Plant response rating (0 to 100), Velvetleaf” value (velvetleaf [3]; Preemergence, 250 g ai/ha)?
Its value is 0.

And the “Velvetleaf plant response rating” value (velvetleaf [3]; 125 g ai/ha)?
Its value is 0.

And the “Plant response rating, Ducksalad” value (duck salad; [12])?
The value was 30.

What about the “Plant response rating, Ducksalad” value (duck salad; [13]) of the same compound?
The value was 50.

What about the “Plant response rating, Ducksalad” value (duck salad; [14]) of the same compound?
Its value is 75.

And the “Plant response rating, Ducksalad” value (duck salad; [15])?
Its value is 80.

What about the “Plant response rating, Barnyardgrass” value (barnyardgrass [4]; [12]) of the same compound?
The value was 0.

What about the “Plant response rating, Barnyardgrass” value (barnyardgrass [4]; [13]) of the same compound?
Its value is 0.

And the “Plant response rating, Barnyardgrass” value (barnyardgrass [4]; [14])?
Its value is 0.

What about the “Plant response rating, Barnyardgrass” value (barnyardgrass [4]; [15]) of the same compound?
The value was 20.
